According to patent US20230048349A1, “RECIRCULATING AQUACULTURE SYSTEM AND METHODS THEREOF” (THE TEXAS A&M UNIVERSITY SYSTEM, priority 2021, published 2023):
In brackets after ≈: the same amount, converted by molar mass. Marks after values point to notes of the source that are not given here.

What was measured:
[1] = system: V. campbellii and A. hydrophila; assay: Growth inhibition test of SCFAs and MCFAs, ranges over two G− pathogens (Example 15); format: cell-based, Vibrio campbellii; Aeromonas hydrophila; conditions: range over V. campbellii and A. hydrophila; for MIC: LB pH 6, 5-125 mM tested
Protocol: (§1) Growth Inhibition Tests: Antipathogenic Properties of SCFAs and MCFAs. Growth inhibition tests to measure optical density (OD600) and calculate % inhibition efficiencies, minimum, and median inhibitory concentrations (MIC and IC50) were conducted as described previously. […] The PHA intermediates (SCFAs and MCFAs) are water-soluble, representing the PHA degradation products in the gastrointestinal tract of aquatic animals, allowing to assess the antipathogenic efficacy of PHA under the best scenario. The culture tubes were incubated at 30° C. under 150 rpm. The growths of tested strains in the absence of PHA intermediates were used as controls.

S. agalactiae = assay: Growth inhibition test of SCFAs and MCFAs (Example 15); format: cell-based, Streptococcus agalactiae
Protocol: as §1

[2] = system: Vibrio-challenged Artemia; assay: Artemia pathogen challenge test (Example 17); format: in vivo, Artemia franciscana; conditions: after three days; supplement 1 g/L; V. campbellii 10^8 cells/ml
Protocol: The pathogen challenge tests were designed to determine the effects of individual supplements on the survival of Vibrio-challenged Artemia. The pathogen challenge tests were conducted as described in the starvation tests, except that Artemia cultures (one day old) with each of the abovementioned supplements (1 g/L) were exposed to a lethal dose (10^8 cells/ml) of live V. campbellii as determined previously. In all treatments, 250 mg/L of yeast was added initially as a feed. Unchallenged and Vibrio-challenged Artemia were used as negative and positive controls, respectively. The survival of Artemia was monitored daily for three days.

Aeromonas hydrophila = assay: Growth inhibition test in liquid medium (OD600); format: cell-based; conditions: A. hydrophila
Protocol: (§2) These compounds were used to assess the antimicrobial efficacy of PHB and chitosan under the best scenario. Various concentrations of PHB intermediates (5-125 mM), COS (0.2-3 mM), or mixtures of 3-HB+COS (i.e., Mixture 1 (4 mM 3-HB+0.1 mM COS), Mixture 2 (12 mM 3-HB+0.3 mM COS), Mixture 3 (24 mM 3-HB+0.6 mM COS), and Mixture 4 (60 mM 3-HB+1.5 mM COS)) were used based on previously in vitro antimicrobial studies using PHB or chitosan. For S. agalactiae and RHA1, tryptic soy broth (TSB) and Reasoner's 2A (R2A) media were used, respectively. The pH of all growth mediums (i.e., LB, TSB, or R2A) was adjusted to 6.0 based on the typical pH value found in aquatic animals' gut and the optimized antimicrobial activity of PHB. The culture tubes were inoculated with 2% v/v of the pre-grown strains (optical density (OD600) of 1.0) and incubated at 30° C. under 150 rpm. The bacterial growth was determined by absorbance at OD600. The growth of tested strains in the absence of PHB or chitosan intermediates were used as controls. The inhibition efficiency (%) was calculated using Eq. (1): […]
(§3) where ODcontrol and ODsample refer to the highest optical densities of the growth curves for the controls and samples, respectively.

Bacillus megaterium = assay: Growth inhibition test in liquid medium (OD600); format: cell-based; conditions: B. megaterium; for MIC: pH 6.0, 30° C.
Protocol: as §2, §3

Escherichia coli = assay: Growth inhibition test in liquid medium (OD600); format: cell-based; conditions: E. coli; for MIC: pH 6.0, 30° C.
Protocol: as §2, §3

Rhodococcus jostii RHA1 = assay: Growth inhibition test in liquid medium (OD600); format: cell-based; conditions: R. jostii RHA1; for MIC: pH 6.0, 30° C.
Protocol: as §2, §3

Streptococcus agalactiae = assay: Growth inhibition test in liquid medium (OD600); format: cell-based; conditions: S. agalactide; for MIC: pH 6.0, 30° C.
Protocol: as §2, §3

Vibrio campbellii = assay: Growth inhibition test in liquid medium (OD600); format: cell-based; conditions: V. campellii; for MIC: pH 6.0, 30° C.
Protocol: as §2, §3

[3] = system: V. campbellii and A. hydrophila; assay: Growth inhibition test, ranges stated over two G− pathogens (Example 8); format: cell-based, Vibrio campbellii; Aeromonas hydrophila; conditions: range over V. campbellii and A. hydrophila
Protocol: as §2, §3

CCCCCCCC(=O)O [octanoate]
MIC [1]: < 5 mM | MIC (S. agalactiae; stated for all pathogenic growth, incl. S. agalactiae): < 5 mM | survival of Vibrio-challenged Artemia [2]: 80%

CC(O)CC(=O)O (centres unmarked) [3-HB, 3-hydroxybutyrate]
Inhibition Efficiency (%) (Aeromonas hydrophila; 5 mM): 2.7 ± 1.26% | Inhibition Efficiency (%) (Aeromonas hydrophila; 25 mM): 24.1 ± 2.70% | Inhibition Efficiency (%) (Aeromonas hydrophila; 50 mM): 31.1 ± 3.59% | Inhibition Efficiency (%) (Aeromonas hydrophila; 125 mM): 100% | IC50 (Aeromonas hydrophila; 4-parameter logistic fit): 57.7 mM | MIC (Aeromonas hydrophila; pH 6.0, 30° C.): 133 mM (≈ 13.8 mg/mL) | Inhibition Efficiency (%) (Bacillus megaterium; 5 mM): 6.52 ± 3.48% | Inhibition Efficiency (%) (Bacillus megaterium; 25 mM): −1.35 ± 1.04% | Inhibition Efficiency (%) (Bacillus megaterium; 50 mM): 12.9 ± 0.94% | Inhibition Efficiency (%) (Bacillus megaterium; 125 mM): 17.0 ± 14.4% | IC50 (Bacillus megaterium; 4-parameter logistic fit): N.I. | MIC (Bacillus megaterium): N.I. | Inhibition Efficiency (%) (Escherichia coli; 5 mM): 2.68 ± 0.67% | Inhibition Efficiency (%) (Escherichia coli; 25 mM): 9.15 ± 3.12% | Inhibition Efficiency (%) (Escherichia coli; 50 mM): 24.5 ± 2.23% | Inhibition Efficiency (%) (Escherichia coli; 125 mM): 26.5 ± 1.34% | MIC (Escherichia coli): 510 mM (≈ 53.1 mg/mL) | Inhibition Efficiency (%) (Rhodococcus jostii RHA1; 5 mM): −32.3 ± 2.20% | Inhibition Efficiency (%) (Rhodococcus jostii RHA1; 25 mM): −87.3 ± 4.00% | Inhibition Efficiency (%) (Rhodococcus jostii RHA1; 50 mM): −61.7 ± 0.58% | Inhibition Efficiency (%) (Rhodococcus jostii RHA1; 125 mM): 100% | IC50 (Rhodococcus jostii RHA1; 4-parameter logistic fit): N.I. | MIC (Rhodococcus jostii RHA1): N.I. | Inhibition Efficiency (%) (Streptococcus agalactiae; 5 mM): 0.75 ± 0.01% | Inhibition Efficiency (%) (Streptococcus agalactiae; 25 mM): 0.75 ± 0.03% | Inhibition Efficiency (%) (Streptococcus agalactiae; 50 mM): 0.75 ± 0.01% | Inhibition Efficiency (%) (Streptococcus agalactiae; 125 mM): 13.8 ± 0.15% | MIC (Streptococcus agalactiae): 945 mM (≈ 98.4 mg/mL) | Inhibition Efficiency (%) (Vibrio campbellii; 5 mM): 1.27 ± 1.07% | Inhibition Efficiency (%) (Vibrio campbellii; 25 mM): 14.0 ± 1.78% | Inhibition Efficiency (%) (Vibrio campbellii; 50 mM): 42.4 ± 5.88% | Inhibition Efficiency (%) (Vibrio campbellii; 125 mM): 100% | IC50 (Vibrio campbellii; 4-parameter logistic fit, read-out: IC50): 53 mM | MIC (Vibrio campbellii): 111.5 mM (≈ 11.6 mg/mL) | IC50 [3]: 53 to 58 mM | MIC [3]: 111.5 to 133 mM

CCCCC(=O)O [valerate]
IC50 ([1]; LB pH 6): 0.84 to 11.1 mM | MIC [1]: 62.4 to 77.9 mM | IC50 (S. agalactiae; S. agalactiae): 30.2 mM | survival of Vibrio-challenged Artemia [2]: 10%

chitosan oligosaccharide lactate [COS]
Inhibition Efficiency (%) (Aeromonas hydrophila; 0.2 mM): 4.81 ± 0.11% | Inhibition Efficiency (%) (Aeromonas hydrophila; 0.6 mM): −7.30 ± 0.40% | Inhibition Efficiency (%) (Aeromonas hydrophila; 1.2 mM): 77.6 ± 0.28% | Inhibition Efficiency (%) (Aeromonas hydrophila; 3 mM): 74.2 ± 0.61% | Inhibition Efficiency (%) (Bacillus megaterium; 0.2 mM): 100% | Inhibition Efficiency (%) (Bacillus megaterium; 0.6 mM): 100% | Inhibition Efficiency (%) (Bacillus megaterium; 1.2 mM): 100% | Inhibition Efficiency (%) (Bacillus megaterium; 3 mM): 100% | MIC (Bacillus megaterium): <0.2^c mM | Inhibition Efficiency (%) (Escherichia coli; 0.2 mM): 60.6 ± 4.56% | Inhibition Efficiency (%) (Escherichia coli; 0.6 mM): 90.6 ± 0.91% | Inhibition Efficiency (%) (Escherichia coli; 1.2 mM): 100% | Inhibition Efficiency (%) (Escherichia coli; 3 mM): 100% | MIC (Escherichia coli): 1.88 mM | Inhibition Efficiency (%) (Rhodococcus jostii RHA1; 0.2 mM): 100% | Inhibition Efficiency (%) (Rhodococcus jostii RHA1; 0.6 mM): 100% | Inhibition Efficiency (%) (Rhodococcus jostii RHA1; 1.2 mM): 100% | Inhibition Efficiency (%) (Rhodococcus jostii RHA1; 3 mM): 100% | MIC (Rhodococcus jostii RHA1): <0.2 mM | Inhibition Efficiency (%) (Streptococcus agalactiae; 0.6 mM): 95.4 ± 0.01% | Inhibition Efficiency (%) (Streptococcus agalactiae; 1.2 mM): 100% | Inhibition Efficiency (%) (Streptococcus agalactiae; 3 mM): 100% | MIC (Streptococcus agalactiae): 1.08 mM | Inhibition Efficiency (%) (Vibrio campbellii; 0.2 mM): 76.5 ± 1.13% | Inhibition Efficiency (%) (Vibrio campbellii; 0.6 mM): 93.0 ± 1.10% | Inhibition Efficiency (%) (Vibrio campbellii; 1.2 mM): 95.0 ± 0.23% | Inhibition Efficiency (%) (Vibrio campbellii; 3 mM): 100% | MIC (Vibrio campbellii): 2.36 mM
